Measurements published in patent US20220017863A1, “SIRT2-ABLATED CHIMERIC T CELLS” (H. Lee Moffitt Cancer Center and Research Institute, Inc., priority 2019, published 2022).

Experiments:
Pmel T cells = assay: IFN-γ ELISPOT on gp100-stimulated Pmel T cells; type: cell-based, mouse; details: gp100-stimulated Sirt2KO (Sirt2−/−) Pmel T cells
Experimental: Spleens and/or Lymph nodes (LN) were collected from WT, Sirt2KO, Pmel/WT, Pmel/Sirt2KO mice and processed into single-cell suspensions. CD3^+, CD4^+ and CD8^+ T cells were negatively enriched using Mouse Pan T cell, CD4^+ T cell and CD8^+ T cell isolation Kits™ respectively according to the manufacturers' instructions. The purity of the isolated cells was confirmed by flow cytometry (>95%). Purified T cells were cultured in completed RPMI 1640 medium (ThermoFisher Scientific) supplemented with 10% (vol/vol) Fetal bovine serum (FBS, Biowest) and 1% (vol/vol) penicillin/streptomycin (P/S, Thomas Scientific Inc). […]
(§1) The number of IFN-γ producing cells was evaluated in an ELISPOT assay. […] After washing steps and biotinylated anti-IFN-γ antibody (R4-6A2, ThermoFisher Scientific)+Streptavidin-HRP (BD Bioscience) labeling, spots were detected using AEC Substrate Kit (BD Biosciences) and counted using an AID ELISPOT Reader System (Autoimmun Diagnostika GmbH). […]
(§2) The number of IFN-γ producing cells was evaluated in an ELISPOT assay. […] After washing steps and successive biotinylated anti-IFN-γ antibody (R4-6A2, Mabtech, Inc.) and Streptavidin-HRP (BD Bioscience) labeling, spots were detected using AEC Substrate Kit (BD Biosciences) and counted using an AID ELISPOT Reader System (Autoimmun Diagnostika GmbH).

[1] = tested on: Pmel CD8+ T cells co-cultured with B16F10 target cells; assay: LDH release cytotoxicity assay of Pmel CD8+ T cells on B16F10 targets; type: cell-based, mouse; details: gp100-stimulated Sirt2KO (Sirt2−/−) Pmel T cells on B16F10 targets, 10 mM 2-DG
Experimental: Evaluation of functional cytotoxic activity was performed using Pierce™ LDH Cytotoxicity Assay Kit (ThermoFisher Scientific) according to the manufacturer's protocol. B16F10 cells were used as targets. Mouse CD3^+ TILs isolated from subcutaneous B16F10 tumor nodules and CD8^+ enriched T cells from gp100-stimulated Pmel splenocytes were used as effector cells. Briefly, target B16F10 tumor cells were co-cultured with effector cells in 96-well round-bottom microplates at the indicated effector:target ratios. After 6 hours, the percentage of specific LDH release was calculated according to the following formula: % cell lysis=(experimental value effector cells spontaneous release target cells spontaneous release)×100/(target cells maximum release target cells spontaneous release), where “experimental” corresponds to the experimental signal value, “effector spontaneous” to spontaneous release of LDH from effector cells alone, “target spontaneous” to spontaneous release of LDH from target cells alone and “maximum release” to the maximum release of LDH from target cells in medium containing 1% Triton X-100.
Evaluation of functional cytotoxic activity was performed using Pierce™ LDH Cytotoxicity Assay Kit (Thermo Fisher Scientific) according to the manufacturer's protocol. […]

[2] = tested on: CD3+ TILs from B16F10 tumor nodules; assay: IFN-γ ELISPOT on mouse CD3+ TILs re-challenged with irradiated B16F10 cells; type: cell-based; details: CD3+ TILs from subcutaneous B16F10 nodules of Sirt2KO versus WT mice
Experimental: Lymphocytes from subcutaneous tumors were isolated by dicing the tissues and enzymatic digestion in PBS containing collagenase type 4 (2 mg/ml, Worthington Biochemical) and DNase I (0.25 mg/ml, Sigma) for 45 min with occasional shaking at 37° C. Cell suspensions were then twice filtered through 100 μm and 40 μm cell strainers (ThermoFisher Scientific) to single-cell suspension followed by PBS wash and red blood cell lysis using RBC Lysis Buffer (Biolegend). TILs were finally isolated by density gradient centrifugation using Percoll (GE Healthcare) and further purified using CD3c MicroBeads Kit™ (Miltenyi Biotec) according to the manufacturer's instructions. […]
as §1, §2

SIRT2 = molecular target: T1, SIRT2 (Homo sapiens, UniProt Q8IXJ6); details: cited from earlier work
T1 sequence (Q8IXJ6 1-389): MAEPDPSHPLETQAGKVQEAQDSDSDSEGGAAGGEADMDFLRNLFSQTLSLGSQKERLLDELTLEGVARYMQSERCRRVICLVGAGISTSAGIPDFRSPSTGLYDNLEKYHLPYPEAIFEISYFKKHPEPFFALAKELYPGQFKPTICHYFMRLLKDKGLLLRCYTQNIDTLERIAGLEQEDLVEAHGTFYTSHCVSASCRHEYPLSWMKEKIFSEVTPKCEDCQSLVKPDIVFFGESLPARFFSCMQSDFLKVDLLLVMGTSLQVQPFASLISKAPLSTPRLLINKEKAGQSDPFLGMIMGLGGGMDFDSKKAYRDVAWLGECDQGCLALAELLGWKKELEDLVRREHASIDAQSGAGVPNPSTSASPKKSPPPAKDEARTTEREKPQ

SIRT1 = molecular target: T2, SIRT1 (Homo sapiens, UniProt Q96EB6); details: cited from earlier work
T2 sequence (Q96EB6 1-747): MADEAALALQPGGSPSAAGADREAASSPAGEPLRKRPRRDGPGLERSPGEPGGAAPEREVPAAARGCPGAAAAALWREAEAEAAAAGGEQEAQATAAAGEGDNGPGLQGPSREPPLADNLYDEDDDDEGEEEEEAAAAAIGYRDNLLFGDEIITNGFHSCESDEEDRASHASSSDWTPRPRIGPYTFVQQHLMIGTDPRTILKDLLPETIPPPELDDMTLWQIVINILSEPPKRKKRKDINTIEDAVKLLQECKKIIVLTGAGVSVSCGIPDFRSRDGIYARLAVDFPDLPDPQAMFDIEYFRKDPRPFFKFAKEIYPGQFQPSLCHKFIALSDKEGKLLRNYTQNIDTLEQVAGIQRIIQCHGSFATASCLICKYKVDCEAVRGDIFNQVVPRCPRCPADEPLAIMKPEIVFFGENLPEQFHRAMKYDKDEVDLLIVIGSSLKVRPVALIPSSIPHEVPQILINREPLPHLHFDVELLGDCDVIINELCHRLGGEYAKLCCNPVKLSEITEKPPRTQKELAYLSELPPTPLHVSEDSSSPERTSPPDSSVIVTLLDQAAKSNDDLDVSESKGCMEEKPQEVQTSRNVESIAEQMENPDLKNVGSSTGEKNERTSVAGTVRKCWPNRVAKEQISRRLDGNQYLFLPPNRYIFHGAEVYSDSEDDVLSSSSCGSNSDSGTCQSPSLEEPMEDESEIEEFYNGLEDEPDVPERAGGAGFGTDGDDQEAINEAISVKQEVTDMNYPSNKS

SIRT3 = molecular target: T3, SIRT3 (Homo sapiens, UniProt Q9NTG7); details: cited from earlier work
T3 sequence (Q9NTG7 1-399): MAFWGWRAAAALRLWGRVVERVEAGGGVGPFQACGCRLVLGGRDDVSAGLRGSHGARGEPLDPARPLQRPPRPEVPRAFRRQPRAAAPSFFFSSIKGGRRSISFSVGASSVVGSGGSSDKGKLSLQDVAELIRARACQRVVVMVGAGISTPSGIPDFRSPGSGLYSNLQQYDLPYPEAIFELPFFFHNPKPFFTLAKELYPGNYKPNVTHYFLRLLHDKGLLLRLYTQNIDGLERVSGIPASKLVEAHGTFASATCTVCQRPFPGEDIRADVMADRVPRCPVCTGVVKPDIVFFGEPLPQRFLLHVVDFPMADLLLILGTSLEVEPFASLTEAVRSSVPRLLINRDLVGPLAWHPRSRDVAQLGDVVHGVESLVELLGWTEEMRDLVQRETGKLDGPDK

For `O=CC[C@@H](O)[C@H](O)[C@H](O)CO` [2-DG, 2-deoxyglucose], the IFN-γ release (Pmel T cells) was “profoundly suppressed”, the cytotoxicity [1] was “profoundly suppressed” and the IFN-γ release [2] was “suppressed”.
In the case of `CCOC(=O)c1ccc(NC(=O)c2ccc3c(c2)C2C4CCC(C4)C2C(c2ccccc2)N3)cc1` (stereo not drawn) [AEM2], the IC50 (SIRT2) is listed as 3.8 µM.
In the case of `O=C(Nc1cccc([N+](=O)[O-])c1)c1cccc(S(=O)(=O)N2CCCCCC2)c1` [AK-1], the IC50 (SIRT1) is given as over 50 µM and the IC50 (SIRT3) is given as over 50 µM.
